We go through one compound from patent US12447170B2, “Use of maribavir in treatment regimens” (priority 2021, dated 2025).

Details of data set [1]: species or system human. The conditions noted are these: in vivo. The source says:
It can be taken with or without food, and no dose adjustment is needed in patients with mild-to-moderate hepatic impairment or renal impairment. Maribavir has a low drug-interaction potential and there are minimal dose adjustments required (for example, only when taken concurrently with CYP3A4 inducers or certain immunosuppressants) and there are no effects on QT interval.

Data set [2] in a line: PBPK simulation of maribavir with ketoconazole (CYP3A4 inhibitor). Also noted: species or system human. As to the method: A comparison of observed and predicted plasma concentrations of maribavir following a single oral dose of 400 mg administered in the absence of ketoconazole (a CYP3A4 inhibitor) and 1 hour after a single 400 mg dose of ketoconazole to healthy subjects was performed.

For data set [3], the target named is T1, P-gp (Homo sapiens, UniProt P08183).
T1 construct: P-gp efflux of digoxin (as determined by the corrected efflux ratio) in cultured Caco-2 cells; endogenous in cells; host or cells: Caco-2 cells
The experiment in a line: Inhibition of P-gp efflux of digoxin in cultured Caco-2 cells. Format: in vitro ADME. As to the method: FIG. 4. Estimation of IC50 of maribavir on P-gp efflux of digoxin (as determined by the corrected efflux ratio) in cultured Caco-2 cells. IC50, half maximal inhibitory concentration; P-gp, P-glycoprotein.
Drug-drug interaction potential of maribavir with cytochrome P450 enzymes and P-glycoprotein (P-gp) was thoroughly characterized. The reversible inhibition, time-dependent inhibition, and induction of CYPs were evaluated in the presence of maribavir using human cells or human-derived cell lines. The inhibition of P-gp was also assessed.

Data set [4] relates to CYP3A4 mRNA. The experiment in a line: CYP induction (mRNA, qPCR) in fresh human hepatocytes. Format: in vitro ADME. As to the method:
Fresh human hepatocytes were treated with culture medium with maribavir concentrations of 36 μM, 144 μM, and 480 μM.
Positive controls were 50 μM omeprazole (CYP1A2), 1 mM phenobarbital (CYP2B6), and 50 μM rifampicin (CYP3A).
Incubation was conducted at 37° C. for 72 hours, with daily replacement of medium with compound. Total RNA was isolated, and cDNA was synthesized from up to 1 μg of total isolated RNA. Analysis of CYP expression was performed using qPCR with CYP-specific probes.
Half maximal effective concentration (EC50) and maximum effect (Emax) values for CYP3A4 mRNA induction were further determined by a concentration-response curve in three donors with maribavir at a concentration between 0-100 μM.

The target in data set [5] is T2, CYP2E1 (Homo sapiens, UniProt P05181).
T2 construct: from tissue; host or cells: human liver microsomes
The data set can be described thus: Reversible CYP inhibition in human liver microsomes (HLM). The following applies: up to 100 μM. Format: in vitro ADME. As to the method:
(§1) HLM were used to evaluate maribavir's half maximal inhibitory concentration (IC50) on inhibition of activities of nine CYP isoforms. Probe substrates were phenacetin (CYP1A2), coumarin (CYP2A6), bupropion (CYP2B6), paclitaxel (CYP2C8), tolbutamide (CYP2C9), (S)-mephenytoin (CYP2C19), dextromethorphan (CYP2D6), clorzoxazone (CYP2E1), and midazolam and testosterone (CYP3A4).
(§2) CYP activities with 0, 0.1, 0.3, 1, 3, 10, 30, and 100 μM of maribavir were evaluated.
(In general: Microsomes from liver hold many membrane-bound enzymes, among them those of drug oxidation.)

Data set [6] has as its target T3, CYP2B6 (Homo sapiens, UniProt P20813).
T3 construct: from tissue; host or cells: human liver microsomes
T3 sequence (P20813 1-491): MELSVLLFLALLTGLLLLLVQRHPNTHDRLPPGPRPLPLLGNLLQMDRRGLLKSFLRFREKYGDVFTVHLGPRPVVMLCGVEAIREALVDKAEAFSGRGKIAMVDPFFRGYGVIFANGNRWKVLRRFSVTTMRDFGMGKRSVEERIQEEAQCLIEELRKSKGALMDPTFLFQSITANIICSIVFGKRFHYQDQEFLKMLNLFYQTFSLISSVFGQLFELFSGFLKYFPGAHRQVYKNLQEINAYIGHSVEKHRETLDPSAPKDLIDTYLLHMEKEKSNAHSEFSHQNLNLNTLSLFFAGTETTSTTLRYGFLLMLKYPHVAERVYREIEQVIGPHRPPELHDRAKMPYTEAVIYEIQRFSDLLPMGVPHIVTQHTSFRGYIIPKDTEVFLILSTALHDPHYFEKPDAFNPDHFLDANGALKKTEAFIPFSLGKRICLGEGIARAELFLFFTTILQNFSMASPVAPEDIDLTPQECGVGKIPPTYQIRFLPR
Described as above. Format: in vitro ADME. The conditions noted are these: up to 100 μM. As to the method: as §1, §2

Data set [7] deals with T4, CYP2A6 (Homo sapiens, UniProt P11509).
T4 construct: from tissue; host or cells: human liver microsomes
T4 sequence (P11509 1-494): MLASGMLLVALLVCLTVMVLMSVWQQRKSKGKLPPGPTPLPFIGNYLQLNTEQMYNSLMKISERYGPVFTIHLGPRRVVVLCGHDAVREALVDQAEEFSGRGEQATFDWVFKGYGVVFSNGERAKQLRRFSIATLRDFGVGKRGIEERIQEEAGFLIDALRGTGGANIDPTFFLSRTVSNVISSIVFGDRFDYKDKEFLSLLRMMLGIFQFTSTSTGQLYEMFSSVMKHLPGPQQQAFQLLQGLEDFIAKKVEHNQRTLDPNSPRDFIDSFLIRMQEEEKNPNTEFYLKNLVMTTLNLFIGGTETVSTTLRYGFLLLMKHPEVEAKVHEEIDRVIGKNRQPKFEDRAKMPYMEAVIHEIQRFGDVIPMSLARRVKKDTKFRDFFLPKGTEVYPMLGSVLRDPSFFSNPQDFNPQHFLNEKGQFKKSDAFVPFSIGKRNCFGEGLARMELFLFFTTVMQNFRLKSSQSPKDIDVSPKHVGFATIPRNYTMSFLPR
The description is as above. Format: in vitro ADME. The conditions noted are these: up to 100 μM. The method, then:
as §1, §2

Data set [8] has as its target T5, CYP3A4 (Homo sapiens, UniProt P08684).
T5 construct: from tissue; host or cells: human liver microsomes
Described as above. Format: in vitro ADME. The following applies: up to 100 μM. The method, then:
as §1, §2

[9] abbreviates: maribavir 400 mg single dose 1 hour after ketoconazole 400 mg.

Each structure is given as a SMILES string. pIC50: −log10 of the molar value. Entries after “also recorded” stand apart in the source; their conditions may differ. Where only a bound is given, the exact number is not on record here.

T2 sequence (P05181 whole entry): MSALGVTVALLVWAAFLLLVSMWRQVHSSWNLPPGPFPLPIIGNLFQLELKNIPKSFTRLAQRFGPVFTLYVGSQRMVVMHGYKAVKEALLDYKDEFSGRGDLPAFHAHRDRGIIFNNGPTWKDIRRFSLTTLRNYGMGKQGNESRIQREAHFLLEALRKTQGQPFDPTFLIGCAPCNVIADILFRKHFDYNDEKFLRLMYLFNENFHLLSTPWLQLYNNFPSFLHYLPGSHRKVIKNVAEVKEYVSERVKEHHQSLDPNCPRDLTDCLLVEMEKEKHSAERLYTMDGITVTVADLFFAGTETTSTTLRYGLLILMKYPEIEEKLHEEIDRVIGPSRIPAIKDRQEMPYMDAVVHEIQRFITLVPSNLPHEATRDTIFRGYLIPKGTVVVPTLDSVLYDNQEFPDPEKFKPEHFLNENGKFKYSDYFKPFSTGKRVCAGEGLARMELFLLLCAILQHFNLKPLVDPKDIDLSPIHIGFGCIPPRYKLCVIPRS
T5 sequence (P08684 whole entry): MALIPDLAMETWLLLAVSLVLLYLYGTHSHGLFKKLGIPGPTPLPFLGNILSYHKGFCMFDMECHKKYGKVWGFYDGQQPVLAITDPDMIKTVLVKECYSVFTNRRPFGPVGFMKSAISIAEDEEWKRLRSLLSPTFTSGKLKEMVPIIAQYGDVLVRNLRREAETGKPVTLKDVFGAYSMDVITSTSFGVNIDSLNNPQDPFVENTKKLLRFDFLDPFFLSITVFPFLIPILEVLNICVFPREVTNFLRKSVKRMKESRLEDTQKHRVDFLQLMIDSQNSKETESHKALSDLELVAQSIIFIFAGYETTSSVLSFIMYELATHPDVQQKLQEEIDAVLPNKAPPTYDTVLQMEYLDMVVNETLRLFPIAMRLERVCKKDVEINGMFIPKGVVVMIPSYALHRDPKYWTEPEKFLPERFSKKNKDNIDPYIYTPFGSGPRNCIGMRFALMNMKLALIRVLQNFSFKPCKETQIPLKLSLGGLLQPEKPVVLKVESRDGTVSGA
T1 sequence (P08183 whole entry): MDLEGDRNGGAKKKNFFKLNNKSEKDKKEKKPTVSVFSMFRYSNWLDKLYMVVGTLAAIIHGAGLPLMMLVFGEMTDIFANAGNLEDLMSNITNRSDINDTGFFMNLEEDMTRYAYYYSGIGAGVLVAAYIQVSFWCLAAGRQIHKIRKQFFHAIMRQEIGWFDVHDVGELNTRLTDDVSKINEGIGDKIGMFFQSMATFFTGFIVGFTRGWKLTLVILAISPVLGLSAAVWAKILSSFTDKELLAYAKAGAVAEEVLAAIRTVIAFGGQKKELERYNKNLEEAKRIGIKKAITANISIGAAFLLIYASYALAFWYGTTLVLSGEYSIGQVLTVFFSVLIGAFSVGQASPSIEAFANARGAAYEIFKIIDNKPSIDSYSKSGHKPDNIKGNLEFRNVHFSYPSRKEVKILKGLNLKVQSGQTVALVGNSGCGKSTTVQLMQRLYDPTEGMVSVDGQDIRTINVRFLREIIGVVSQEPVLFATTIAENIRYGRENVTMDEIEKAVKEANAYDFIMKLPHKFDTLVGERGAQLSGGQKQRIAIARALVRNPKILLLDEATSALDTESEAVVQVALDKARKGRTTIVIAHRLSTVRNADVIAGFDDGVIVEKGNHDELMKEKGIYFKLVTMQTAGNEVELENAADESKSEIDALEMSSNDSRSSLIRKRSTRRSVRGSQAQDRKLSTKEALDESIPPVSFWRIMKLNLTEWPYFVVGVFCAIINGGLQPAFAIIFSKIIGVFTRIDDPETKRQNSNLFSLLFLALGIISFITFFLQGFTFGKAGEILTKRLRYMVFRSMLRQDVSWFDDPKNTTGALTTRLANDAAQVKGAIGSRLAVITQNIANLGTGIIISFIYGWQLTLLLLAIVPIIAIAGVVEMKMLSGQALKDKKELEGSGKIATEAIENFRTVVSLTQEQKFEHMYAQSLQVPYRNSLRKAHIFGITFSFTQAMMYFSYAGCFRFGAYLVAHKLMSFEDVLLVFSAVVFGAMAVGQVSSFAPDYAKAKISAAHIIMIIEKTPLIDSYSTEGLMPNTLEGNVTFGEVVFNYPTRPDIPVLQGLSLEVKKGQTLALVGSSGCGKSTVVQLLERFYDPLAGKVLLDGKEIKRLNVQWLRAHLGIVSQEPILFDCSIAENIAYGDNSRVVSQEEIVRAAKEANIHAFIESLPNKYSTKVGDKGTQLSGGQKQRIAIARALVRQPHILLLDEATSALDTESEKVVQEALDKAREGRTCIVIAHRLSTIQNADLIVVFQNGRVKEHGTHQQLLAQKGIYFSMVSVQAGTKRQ

With `CC(C)Nc1nc2cc(Cl)c(Cl)cc2n1[C@H]1O[C@@H](CO)[C@H](O)[C@@H]1O` [maribavir, (2S,3S,4R,5S)-2-(5,6-dichloro-2-(isopropylamino)-1H-benzo[d]imidazol-1-yl)-5-(hydroxymethyl)tetrahydrofuran-3,4-diol], the “effects on QT interval” value in data set [1] is on record as “no effects”. Moreover, in data set [2] (setting [9]), the “AUC(0-∞), GEOMEAN RATIO PREDICTED/OBSERVED” value is on record as 0.77; the “AUC(0-∞), MEAN RATIO PREDICTED/OBSERVED” value is reported as 0.78; the “Cmax, GEOMEAN RATIO PREDICTED/OBSERVED” value was 0.65; the “Cmax, MEAN RATIO PREDICTED/OBSERVED” value was 0.66. For the same compound, in data set [2] (with/without ketoconazole), the “Ratio AUC(0-∞), GEOMEAN RATIO PREDICTED/OBSERVED” value was 1.00; the “Ratio AUC(0-∞), MEAN RATIO PREDICTED/OBSERVED” value is 0.99; the “Ratio Cmax, GEOMEAN RATIO PREDICTED/OBSERVED” value is 1.06; the “Ratio Cmax, MEAN RATIO PREDICTED/OBSERVED” value is reported as 1.05. Moreover, the pIC50 (commonly −log10 of the IC50, conventionally taken in molar units) in data set [3] is 4.47. Besides, in data set [4] (36 μM maribavir, human hepatocytes), the “fold increase in CYP3A4 mRNA induction” value is “greater than 14 fold”. In data set [4] (human), the 50% effective concentration (EC50) – broadly, the concentration that produces a half-maximal response – at 72 h was more than 5 µM. Further, in data set [4] (human, hepatocytes, 72 h, 36 μM), the “CYP3A4 mRNA induction, % of positive control (rifampicin) levels” value is on record as “greater than 30%”. Besides, the “reversible inhibition of CYP2E1” value in data set [5] is “not a reversible inhibitor; also recorded: no significant inhibition”. For the same compound, the “reversible inhibition of CYP2B6” value in data set [6] is given as “not a reversible inhibitor; also recorded: no significant inhibition”. Besides, the “reversible inhibition of CYP2A6” value in data set [7] is “not a reversible inhibitor; also recorded: no significant inhibition”. For the same compound, in data set [8], the “reversible inhibition of CYP3A4” value is on record as “not a reversible inhibitor; also recorded: no significant inhibition”.
